In patent US9617276B2, “Compounds and methods for treating AIDS and HIV infections” (priority 2009, dated 2017):
Where “and” joins values, the source holds several entries; their conditions need not be identical. Equal values may be shown once. Read-outs that look alike come from different tables or passages of the source.

How the values were obtained:
HIV-1NL4-3 = assay: p24 Gag inhibition in MT-4 cells, HIV-1NL4-3; assay type: cell-based
Protocol: (§1) All assays were performed in duplicate or triplicate. […] All assays were performed in duplicate or triplicate.

HIV-1LAI = assay: drug susceptibility, MT-2 cells, MTT assay, HIV-1LAI; assay type: cell-based; conditions: for Selectivity Index: ratio of CC50 to EC50 against HIV-1LAI
Protocol: as §1
(§2) Each selectivity index denotes a ratio of CC50 to EC50 against HIV-1LAI N.D., not done.

cytotoxicity CC50 = assay type: cell-based, Human; conditions: human
HIV-2ROD = assay: drug susceptibility, MT-2 cells, MTT assay, HIV-2ROD; assay type: cell-based
Protocol: as §1, §2

HIV-2EHO = assay: drug susceptibility, MT-2 cells, MTT assay, HIV-2EHO; assay type: cell-based
Protocol: as §1, §2

HIV-1246-1μM = assay: microbe, parasite or virus in culture; assay type: cell-based, HIV-1; conditions: for EC50: Human immunodeficiency virus 1, MT4, read-out: EC50 (μM), HIV-1246-1 μM; for n-fold change in EC50, HIV-1246-1 μM: compared to wild-type HIV-1NL4-3
Outline: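 MT-2 cells were infected with 100 TCID50 of HIV-1LAI with varying drug concentrations, cultured 7 days at 37 °C, and protection was scored by MTT viability. For drug-resistant strains, MT-4 cells were infected likewise and p24 Gag in day-7 supernatant was quantified; EC50 fold changes relate to wild-type HIV-1NL4-3.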

[1] = tested on: HIV-1ERS104pre (wild-type); assay: p24 Gag inhibition in PHA-PBMCs, HIV-1ERS104pre; assay type: cell-based; conditions: mean ± 1 SD
Protocol: (§3) The susceptibility of HIV-1LAI and primary HIV-1 isolates to various drugs were determined as described previously (Koh et al. 2003 Antimicrob Agents Chemother 47:3123-9). Briefly, MT-2 cells (2×10^4/ml) were exposed to 100 50% tissue culture infectious doses (TCID50S) of HIV-1LAI, in the presence or absence of various concentrations of drugs in 96-well microculture plates and were incubated at 37° C. for 7 days. After 100 μl of the medium was removed from each well, 3-(4,5-dimetylthiazol-2-yl)-2,5-diphenyltetrazolium bromide (MTT) solution (10 μl, 7.5 mg/ml in phosphate-buffered saline) was added to each well in the plate, followed by incubation at 37° C. for 3 h. […] All assays were performed in duplicate or triplicate. To determine the susceptibility of primary HIV-1 isolates to drugs, phytohemagglutinin-activated peripheral blood mononuclear cells (PHA-PBMCs; 106/ml) were exposed to 50 TCID50S of each. The target cells were exposed to HIV-1104pre or drug-resistant HIV-1 in the presence or absence of various concentrations of drugs and were incubated for 7 days. Upon the conclusion of the culture, the amounts of p24 Gag protein in the supernatants were determined using a fully automated chemiluminescent enzyme immunoassay system (Lumipulse F; Fujirebio Inc., Tokyo, Japan) (Maeda et al. 2001 J Biol Chem 276:35194-200). To determine the drug susceptibility of certain laboratory HIV-1 strains, MT-4 cells were used as target cells. In brief, MT-4 cells (10^5/ml) were exposed to 100 TCID50S of drug-resistant HIV-1 strains in the presence or absence of various concentrations of drugs and on day 7 of culture, the supernatant was harvested and the amounts of p24 Gag protein were determined. […] All assays were performed in duplicate or triplicate.
(§4) These clinical strains contained 9 to 14 amino acid substitutions in the protease-encoding region, which have reportedly been associated with HIV-1 resistance to various PIs.
(§5) Amino acid substitutions identified in the protease-encoding region compared to the consensus type B sequence cited from the Los Alamos database include L63P in HIV-1ERS104pre; L10I, K14R, L33I, M36I, M46I, F53I, K55R, I62V, L63P, A71V, G73S, V82A, L90M, and I93L in HIV-1MDR/B; L10I, I15V, K20R, L24I, M36I, M46L, I54V, I62V, L63P, K70Q, V82A, and L89M in HIV-1MDR/C; L10I, V11I, T12E, I15V, L19I, R41K, M46L, L63P, A71T, V82A, and L90M in HIV-1MDR/G; L10I, K14R, R41K, M46L, I54V, L63P, A71V, V82A, L90M, I93L in HIV-1MDR/TM; L10I, K43T, M46L, I54V, L63P, A71V, V82A, L90M, and Q92K in HIV-1MDR/MM; L10I, L24I, I33F, E35D, M36I, N37S, M46L, I54V, R57K, I62V, L63P, A71V, G73S, and V82A in HIV-1MDR/JSL. HIV-1ERS104pre served as a source of wild-type HIV-1. EC50s were determined by using PHA-PBMs as target cells, and inhibition of p24 Gag protein production by each drug was used as an end point. Numbers in parentheses represent n-fold changes of EC50s for each isolate compared to EC50s for wild-type HIV-1ERS104pre.

HIV-1MDR/G = assay type: cell-based; conditions: for EC50 (μM), HIV-1MDR/G (SI): PHA-PBMCs, p24 Gag; for n-fold change of EC50, HIV-1MDR/G: compared to wild-type HIV-1ERS104pre
Protocol: as §3, §4, §5

HIV-1MDR/C = assay type: cell-based; conditions: for EC50 (μM), HIV-1MDR/C (SI): PHA-PBMCs, p24 Gag; for n-fold change of EC50, HIV-1MDR/C: compared to wild-type HIV-1ERS104pre
Protocol: as §3, §4, §5

HIV-1MDR/TM = assay type: cell-based; conditions: for EC50 (μM), HIV-1MDR/TM (SI): PHA-PBMCs, p24 Gag; for n-fold change of EC50, HIV-1MDR/TM: compared to wild-type HIV-1ERS104pre
Protocol: as §3, §4, §5

HIV-1MDR/B = assay type: cell-based; conditions: for EC50 (μM), HIV-1MDR/B (SI): PHA-PBMCs, p24 Gag; for n-fold change of EC50, HIV-1MDR/B: compared to wild-type HIV-1ERS104pre
Protocol: as §3, §4, §5

[2] = Human immunodeficiency virus 1, MT4, Table 7, mean ± 1 SD, read-out: EC50 (μM), HIV-1NL4-3
[3] = Human immunodeficiency virus 1, MT4, Table 9, mean ± 1 SD, read-out: EC50 (μM), HIV-1NL4-3
[4] = Human immunodeficiency virus 1, MT2, MT-2 cells, MTT assay, mean ± 1 SD, read-out: EC50 (μM) for HIV-1LAI
[5] = Human immunodeficiency virus 2, MT2, MT-2 cells, MTT assay, mean ± 1 SD, read-out: EC50 (μM) for HIV-2ROD
[6] = Human immunodeficiency virus 2, MT2, MT-2 cells, MTT assay, mean ± 1 SD, read-out: EC50 (μM) for HIV-2EHO
[7] = Human immunodeficiency virus 1, MT4, read-out: EC50 (μM), HIV-1NL4-3, Table 7, mean ± 1 SD
[8] = Human immunodeficiency virus 1, MT4, read-out: EC50 (μM), HIV-1NL4-3, Table 9, mean ± 1 SD
[9] = Human immunodeficiency virus 1, MT2, read-out: EC50 (μM) for HIV-1LAI
[10] = Human immunodeficiency virus 2, MT2, read-out: EC50 (μM) for HIV-2ROD
[11] = Human immunodeficiency virus 2, MT2, read-out: EC50 (μM) for HIV-2EHO

Row | SMILES | EC50 (HIV-1NL4-3; [2]) | EC50 (HIV-1NL4-3; [3]) | EC50 (HIV-1246-1μM) | EC50 (HIV-1NL4-3; [7]) | EC50 (HIV-1NL4-3; [8]) | EC50 (μM), HIV-1ERS104pre (wild-type SI) [1] | n-fold change in EC50, HIV-1246-1 μM (HIV-1246-1μM) | EC50 (μM), HIV-1MDR/G (SI) (HIV-1MDR/G) | n-fold change of EC50, HIV-1MDR/G (HIV-1MDR/G) | EC50 (μM), HIV-1MDR/C (SI) (HIV-1MDR/C) | n-fold change of EC50, HIV-1MDR/C (HIV-1MDR/C) | EC50 (μM), HIV-1MDR/TM (SI) (HIV-1MDR/TM) | n-fold change of EC50, HIV-1MDR/TM (HIV-1MDR/TM) | EC50 (μM), HIV-1MDR/B (SI) (HIV-1MDR/B) | n-fold change of EC50, HIV-1MDR/B (HIV-1MDR/B) | EC50 (HIV-1LAI; [9]) | Selectivity Index (HIV-1LAI) | CC50 (cytotoxicity CC50) | EC50 (HIV-2ROD; [10]) | EC50 (HIV-2EHO; [11]) | other results
1 | CC(C)CN(C[C@@H](O)[C@H](Cc1ccccc1)NC(=O)O[C@H]1CCOC1)S(=O)(=O)c1ccc(N)cc1 [APV, Amprenavir] | 0.034 ± 0.001 µM | 0.032 ± 0.001 µM | 0.34 ± 0.015 µM | – | – | – | – | – | – | – | – | – | – | – | – | – | – | – | – | – | EC50 (HIV-1LAI; [4]): 0.024 ± 0.008 µM; CC50 (cytotoxicity CC50; MT-2 cells, read-out: CC50): > 100000 nM; EC50 (HIV-2ROD; [5]): 0.42 ± 0.1 µM; EC50 (HIV-2EHO; [6]): 0.12 ± 0.03 µM
2 | COC(=O)N[C@H](C(=O)N[C@@H](Cc1ccccc1)[C@@H](O)CN(Cc1ccc(-c2ccccn2)cc1)NC(=O)[C@@H](NC(=O)OC)C(C)(C)C)C(C)(C)C [AZV, Atazanavir] | – | – | 0.032 ± 0.003 µM | 0.004 ± 0.0004 µM | 0.0032 ± 0.0001 µM | 0.002 ± 0.001 µM | (10) | 0.033 ± 0.024 µM | (17) | 0.065 ± 0.008 µM | (33) | 0.065 ± 0.008 µM | (33) | 0.20 ± 0.10 µM | (100) | – | – | – | – | – | –
3 | COc1ccc2c(c1)OCCCC=CCCCCN(CC(O)C(Cc1ccccc1)NC(=O)OC1COC3OCCC13)S2(=O)=O (centres unmarked) [Compound 14b] | – | – | 0.33 ± 0.03 µM | 0.009 ± 0.0006 µM | 0.006 ± 0.005 µM | – | (55) | 0.028 ± 0.004 µM | (4) | 0.029 ± 0.001 µM | (4) | 0.072 ± 0.014 µM | (10) | 0.089 ± 0.016 µM | (13) | 0.004 ± 0.001 µM | 8,280 | 33100 ± 2500 nM | 0.025 ± 0.002 µM | 0.018 ± 0.013 µM | EC50 (μM), HIV-1ERS104pre (wild-type SI) ([1]; listed as GRL-286): 0.007 µM and 0.007 ± 0.002 µM
4 | COc1ccc2c(c1)OCCC=CCCCCN(CC(O)C(Cc1ccccc1)NC(=O)OC1COC3OCCC13)S2(=O)=O (centres unmarked) [Compound 14c] | – | – | 0.3 ± 0.01 µM | 0.005 ± 0.001 µM | 0.004 ± 0.001 µM | – | – | – | – | – | – | – | – | – | – | 0.002 ± 0.001 µM | – | 48800 ± 1300 nM | 0.017 ± 0.001 µM | 0.01 ± 0.007 µM | –
5 | Cc1cccc(C)c1OCC(=O)N[C@@H](Cc1ccccc1)[C@@H](O)C[C@H](Cc1ccccc1)NC(=O)[C@H](C(C)C)N1CCCNC1=O [LPV, lopinavir] | 0.046 ± 0.025 µM | 0.035 ± 0.004 µM | 0.33 ± 0.04 µM | – | – | 0.034 ± 0.002 µM | (8) | 0.26 ± 0.04 µM | (8) | > 1 µM | > 29 | > 1 µM | > 29 | > 1 µM | > 29 | – | >2,560 | > 100000 nM | – | – | EC50 (HIV-1LAI; [4]): 0.039 ± 0.006 µM; EC50 (HIV-2ROD; [5]): 0.028 ± 0.004 µM; EC50 (HIV-2EHO; [6]): 0.035 ± 0.025 µM
6 | CCC[C@@]1(CCc2ccccc2)CC(O)=C([C@H](CC)c2cccc(NS(=O)(=O)c3ccc(C(F)(F)F)cn3)c2)C(=O)O1 [TPV, Tipranavir] | – | – | 0.095 ± 0.089 µM | 0.32 ± 0.07 µM | 0.29 ± 0.05 µM | 0.12 ± 0.03 µM | (0.3) | 0.24 ± 0.08 µM | (2) | 0.38 ± 0.079 µM | (3) | 0.38 ± 0.05 µM | (3) | 0.18 ± 0.009 µM | (2) | 0.17 ± 0.005 µM | 320 | – | 0.33 ± 0.07 µM | 0.3 ± 0.15 µM | –
